From patent US20250313528A1, “NOVEL COMPOUND AND PHARMACEUTICAL COMPOSITION FOR PREVENTING OR TREATING PULMONARY FIBROSIS COMPRISING SAME AS ACTIVE INGREDIENT” (GIL MEDICAL CENTER, priority 2022, published 2025)

Columns and labels:
Format in all cases: cell-based, human
fibronectin and α-SMA [1] = experiment: Western blotting of fibrosis-related proteins in TGF-β1-induced DHLF-IPF cells; conditions: TGF-β1 1 ng/ml, 10 μM, FIG. 4b
Procedure: (§1) Specifically, to extract fibronectin and α-SMA proteins, the cells were washed once with cold PBS and then RIPA buffer (150 mM NaCl, 0.5% Triton X-100, 50 mM Tris-HCl, pH 7.4, 25 mM NaF, 20 mM EGTA), which was added with a protease inhibitor cocktail, was added thereto to lyse the cells. Then, the proteins were quantified using a BCA protein assay kit. All protein samples were subjected to electrophoresis at 10 μg on 8% to 10% PAGE gels and then transferred to 0.2 μm PVDF membranes (EMD Millipore, MA, USA). The membranes to which the protein was transferred were blocked with 5% BSA or 5% skim milk for 1 hour, and then primary antibodies were added thereto and incubated overnight at 4° C. The following day, the membranes were washed three times with PBST, and then HRP-conjugated secondary antibodies were added and reacted at room temperature for 1 hour. The PVDF membranes prepared through such procedures were smeared with ECL (Luminata™ Crescendo, EMD Millipore) and exposed to a fluorescence reader to confirm the level of protein expression.
(§2) To compare the changes in fibrosis-related protein expression by treating normal MRC-5 and diseased DHLF-IPF cell lines induced with pulmonary fibrosis by TGF-β1 with SFN and the two candidate compounds, Western blotting was performed.
(§3) The specific experimental methods are the same as in Example 2. TGF-β1 was treated at 1 ng/ml to induce fibrosis, and sulforaphane and the two compounds each were treated at a concentration of 10 μM.

FN, COL1A1, and α-SMA [2] = experiment: qRT-PCR of fibrosis-related genes in TGF-β1-induced MRC-5 cells; conditions: MRC-5, 10 μM pretreatment 1 hour, TGF-β1 1 ng/ml 48 hours, FIG. 4c/4d
Procedure: (§4) MRC-5 and DHLF-IPF cells were each cultured in growth medium, and the medium was removed. […] The medium was then removed, and the cells were washed once with PBS. Intracellular total RNA was extracted from the cultured cells using TRIzol reagent (TaKaRa Bio Inc., Japan) for gene expression analysis. 1 mL of TRIzol reagent was added to lyse the cells and denature the tissue. The lysate was transferred to each 1.5 mL tube, and 200 μL of chloroform was added thereto, followed by vortexing for 20 seconds to ensure complete mixing. After incubating at room temperature for 15 minutes, the mixture was centrifuged at 14,000 rpm for 20 minutes to obtain the supernatant. After adding an equal volume of isopropyl alcohol, the tubes were inverted and incubated at room temperature for 10 minutes. The sample was centrifuged at 14,000 rpm for 15 minutes to obtain an RNA pellet, which was washed by centrifugation with 70% ethanol for use on RNA at 14,000 rpm for 5 minutes, and dried for 5 minutes. The dried RNA sample was added with 20 μL of distilled water treated with 0.1% diethyl pyrocarbonate (DEPC) to dissolve the pallet and the resultant was used as a sample for cDNA synthesis. 1 μL of the same was used to measure the RNA concentration and purity at O.D. 260/280 nm using a Nanodrop.
(§5) Single-stranded cDNA synthesis was performed by mixing 1 μg of the extracted total RNA with 1 μL of oligo-d(T) primer ([…]) and 10 mM dNTP (TaKaRa Bio Inc., Japan), reacting at 65° C. for 5 minutes, followed by rapid cooling. To this template, 4 μL of 5×RT buffer, 0.5 μL of RNA inhibitor, and 100 units of RTase (TaKaRa Bio Inc., Japan) were added, and the total volume was adjusted to 20 μL using DEPC-treated distilled water. […]
(§6) Each gene expression level was measured using real-time PCR. […] The specificity of the amplified product was confirmed through melting curve analysis, and the target genes were quantified and compared using GAPDH as a control gene.

FN, COL1A1, and α-SMA [3] = experiment: qRT-PCR of fibrosis-related genes in TGF-β1-induced DHLF-IPF cells; conditions: 10 μM pretreatment 1 hour, TGF-β1 1 ng/ml 48 hours, FIG. 4c/4d
Procedure: as §4, §5, §6

fibronectin and α-SMA [4] = experiment: Western blotting of fibrosis-related proteins in TGF-β1-induced MRC-5 cells; conditions: MRC-5, TGF-β1 1 ng/ml, 10 μM, FIG. 4b
Procedure: Since the overexpression of extracellular matrix components such as fibronectin and α-SMA serves as an indicator of fibrotic changes in tissues, MRC-5 cells induced to undergo fibrosis by TGF-β1 were treated with each compound at different concentrations to compare the expression levels of fibronectin and α-SMA.
as §1
The specific experimental methods are the same as in Example 2, and sulforaphane was treated at a concentration of 20 μM, Compound 1 at 5 μM, 10 μM, and 20 μM, and Compound 2 at 2.5 μM, 5 μM, and 10 μM, respectively.
as §2, §3

C[S+]([O-])CCCCN=C=S (stereo not shown) [sulforaphane, reference compound]
reduced: expression levels of fibronectin and α-SMA protein (fibronectin and α-SMA [1]) | gene expression levels of FN, COL1A1, and α-SMA (FN, COL1A1, and α-SMA [2]) | gene expression levels of FN, COL1A1, and α-SMA (FN, COL1A1, and α-SMA [3]) | expression levels of fibronectin and α-SMA protein (fibronectin and α-SMA [4])
